From US20020052295A1, “Diacyl derivatives of propylene diamine having herbicidal activity” (priority 1999, published 2002)

Experiments:
Conditions in all cases: lowest tested rate giving 80% or greater inhibition, approx. 14 days after planting and treating, greenhouse
DATST = experiment: Pre-emergence herbicidal activity on DATST (jimsonweed); format: in vivo, Datura stramonium
Text: (§1) All such uses, and the biological activity enabling such uses, are embraced by the term “herbicidal” herein. Tables 15 and 16 summarize results of tests conducted as described below to determine the pre-emergence herbicidal activity, in the form of a GR80 value, of illustrative compounds of this invention. […] Where herbicidal activity was evident but 80% inhibition was not achieved at the highest rate tested (typically 1000 g/ha), an asterisk (*) is shown in the following tables. Herbicidal activity evident in the form of symptoms of phytotoxicity, in the absence of at least 80% inhibition at any rate, is indicated in the tables by “phyto”. A blank cell in the following tables indicates no herbicidal or phytotoxic response at any rate tested.
(§2) The pre-emergence tests were conducted by the following procedure. Topsoil was sieved to pass through a 1.27 cm screen. Fertilizer was added to the topsoil and the mixture was then sterilized by heating. The topsoil mixture was placed in a pot and compacted to a depth of 1.0 to 1.25 cm from the top of the pot. Seeds of each of several monocotyledonous and dicotyledonous annual plant species were placed on top of the soil. Additional soil was subsequently placed over the seeds to level-fill the pot. A known amount of each test compound dissolved or suspended in an appropriate organic solvent was diluted with a 50:50 mix of acetone and water and applied to the surface of the soil. After treatment the plants were placed in a greenhouse with a 30/21° C. day/night temperature regime where they received 0.64 cm of overhead irrigation. All subsequent watering consisted of a light overhead mist and/or subirrigation as needed for germination and growth.
(§3) Approximately 14 days after planting and treating, the plants were observed and herbicidal efficacy recorded as percent inhibition by comparison with untreated plants.
(§4) The plant species usually regarded as weeds which were utilized in the tests are identified in the tables below according to the following legend, in which “d” indicates a dicotyledonous species and “m” a monocotyledonous species. All monocotyledonous species included in the tests herein are grasses.

BRAPP = experiment: Pre-emergence herbicidal activity on BRAPP (broadleaf signalgrass); format: in vivo, Brachiaria platyphylla
Text: as §1, §2, §3, §4

PANMI = experiment: Pre-emergence herbicidal activity on PANMI (wild proso millet); format: in vivo, Panicum miliaceum
Text: as §1, §2, §3, §4

POROL = experiment: Pre-emergence herbicidal activity on POROL (common purslane); format: in vivo, Portulaca oleracea
Text: as §1, §2, §3, §4

CHEAL = experiment: Pre-emergence herbicidal activity on CHEAL (common lambsquarters); format: in vivo, Chenopodium album
Text: as §1, §2, §3, §4

AMARE = experiment: Pre-emergence herbicidal activity on AMARE (redroot pigweed); format: in vivo, Amaranthus retroflexus
Text: as §1, §2, §3, §4

SOLNI = experiment: Pre-emergence herbicidal activity on SOLNI (black nightshade); format: in vivo, Solanum nigrum
Text: as §1, §2, §3, §4

PANDI = experiment: Pre-emergence herbicidal activity on PANDI (fall panicum); format: in vivo, Panicum dichotomiflorum
Text: as §1, §2, §3, §4

DIGSA = experiment: Pre-emergence herbicidal activity on DIGSA (large crabgrass); format: in vivo, Digitaria sanguinalis
Text: as §1, §2, §3, §4

CIRAR = experiment: Pre-emergence herbicidal activity on CIRAR (canada thistle, seedling); format: in vivo, Cirsium arvense
Text: as §1, §2, §3, §4

SORHA = experiment: Pre-emergence herbicidal activity on SORHA (johnsongrass, seedling); format: in vivo, Sorghum halepense
Text: as §1, §2, §3, §4

ABUTH = experiment: Pre-emergence herbicidal activity on ABUTH (velvetleaf); format: in vivo, Abutilon theophrasti
Text: as §1, §2, §3, §4

CONAR = experiment: Pre-emergence herbicidal activity on CONAR (field bindweed); format: in vivo, Convolvulus arvensis
Text: as §1, §2, §3, §4

SETFA = experiment: Pre-emergence herbicidal activity on SETFA (giant foxtail); format: in vivo, Setaria faberi
Text: as §1, §2, §3, §4

ECHCG = experiment: Pre-emergence herbicidal activity on ECHCG (barnyardgrass); format: in vivo, Echinochloa crus-galli
Text: as §1, §2, §3, §4

Structure (SMILES) | Pre-emergence activity (GR80) on DATST (DATST) | Pre-emergence activity (GR80) on BRAPP (BRAPP) | Pre-emergence activity (GR80) on PANMI (PANMI) | Pre-emergence activity (GR80) on PORAL (POROL) [g/ha] | Pre-emergence activity (GR80) on CHEAL (CHEAL) [g/ha] | Pre-emergence activity (GR80) on AMARE (AMARE) [g/ha] | Pre-emergence activity (GR80) on SOLNI (SOLNI) [g/ha] | Pre-emergence activity (GR80) on PANDI (PANDI) | Pre-emergence activity (GR80) on DIGSA (DIGSA) | Pre-emergence activity (GR80) on CIRAR (CIRAR) | Pre-emergence activity (GR80) on SORHA (SORHA) | Pre-emergence activity (GR80) on ABUTH (ABUTH) | Pre-emergence activity (GR80) on CONAR (CONAR) | Pre-emergence activity (GR80) on SETFA (SETFA) | Pre-emergence activity (GR80) on ECHCG (ECHCG)
CC(CNC(=O)c1cccc(C(F)(F)F)c1)NC(=O)c1cccc(F)c1Cl (centres unmarked) [Example 37] | 250 g/ha | 500 g/ha | 500 g/ha | 64 | 125 | 64 | 250 | 250 g/ha | 250 g/ha | 250 g/ha | 1000 g/ha | 250 g/ha | 250 g/ha | 250 g/ha | 1000 g/ha
CC(CNC(=O)c1cccc(C(F)(F)F)c1)NC(=O)c1cccc(Br)c1F (centres unmarked) [Example 56] | 250 g/ha | 500 g/ha | 125 g/ha | 32 | 32 | 64 | 64 | 250 g/ha | 64 g/ha | 32 g/ha | 750 g/ha | 500 g/ha | * (Where herbicidal activity was evident but 80% inhibition was not achieved at the highest rate tested (typically 1000 g/ha), an asterisk (*) is shown) | 125 g/ha | 750 g/ha
Cc1c(Br)cccc1C(=O)NC(C)CNC(=O)c1cccc(C(F)(F)F)c1 (centres unmarked) [Example 57] | 125 g/ha | 750 g/ha | 750 g/ha | 125 | 32 | 64 | 250 | 125 g/ha | 500 g/ha | 500 g/ha | * (Where herbicidal activity was evident but 80% inhibition was not achieved at the highest rate tested (typically 1000 g/ha), an asterisk (*) is shown) | 750 g/ha | 250 g/ha | 250 g/ha | * (Where herbicidal activity was evident but 80% inhibition was not achieved at the highest rate tested (typically 1000 g/ha), an asterisk (*) is shown)
Cc1cccc(C(=O)NC(C)CNC(=O)c2cccc(C(F)(F)F)c2)c1Cl (centres unmarked) [Example 65] | 250 g/ha | 500 g/ha | 750 g/ha | 125 | 32 | 125 | 500 | 125 g/ha | 250 g/ha | 125 g/ha | * (Where herbicidal activity was evident but 80% inhibition was not achieved at the highest rate tested (typically 1000 g/ha), an asterisk (*) is shown) | 250 g/ha | 250 g/ha | 250 g/ha | 500 g/ha
Cc1cccc(C(=O)NC(C)CNC(=O)c2cccc(C(F)(F)F)c2)c1Br (centres unmarked) [Example 66] | 500 g/ha | 1000 g/ha | 750 g/ha | 500 | 125 | 250 | 750 | 500 g/ha | 750 g/ha | 500 g/ha | * (Where herbicidal activity was evident but 80% inhibition was not achieved at the highest rate tested (typically 1000 g/ha), an asterisk (*) is shown) | 250 g/ha | 250 g/ha | 500 g/ha | 750 g/ha
CC(CNC(=O)c1cccc(C(F)(F)F)c1)NC(=O)c1cccc(SC(F)(F)F)c1 (centres unmarked) [Example 73] | phyto | phyto | phyto | 750 | 750 | 250 | 1000 | * (Where herbicidal activity was evident but 80% inhibition was not achieved at the highest rate tested (typically 1000 g/ha), an asterisk (*) is shown) | phyto | phyto | phyto | phyto | phyto | phyto | phyto
C[C@H](CNC(=O)c1cccc(C(F)(F)F)c1)NC(=O)Oc1cccc(C(F)(F)F)c1 [Example 229, R—N-[1-methyl-2-(3-trifluoromethyl)phenylcarbonylamino]ethyl-3-(trifluoromethyl)phenylcarbamate] | phyto |  | phyto | 100 | 300 | 300 | 1000 | 300 g/ha | 1000 g/ha | 300 g/ha | phyto | * (Where herbicidal activity was evident but 80% inhibition was not achieved at the highest rate tested (typically 1000 g/ha), an asterisk (*) is shown) | phyto | phyto | phyto
